Test results as given in patent US20070098826A1, “Use of pinitol or chiroinositol for protecting the liver” (AMICOGEN, INC., priority 2003, published 2007).

What was measured:
[1] = test system: Liver Damaged by Carbon Tetrachloride; test: Protective activity for the liver damaged by carbon tetrachloride (blood GOT and GPT); assay type: in vivo, Sprague-Dawley rats; conditions: CCl4 rats; for GOT / GPT: blood on day 8; for GOT Inhibition (%) / GPT Inhibition (%): day 8
Description: The rats were divided into 8 groups and carbon tetrachloride was injected subcutaneously into the rats except the rats of the normal group in an amount of 0.5 ml/kg at 1st and 5th day. On day 2, pinitol or chiroinositol dissolved in 10 ml of water was orally administered to the rats of the experimental groups in an amount of 5-20 mg/kg of rat body weight. The normal and control groups were treated with 10 ml of distilled water instead of pinitol. On day 8, GOT and GPT concentrations in the blood sample taken from the orbital vein of each rat was measured by using blood analyzer (Vitros DT-60, Johnson & Johnson) and the result is shown in Table II. The degree of inhibition (%) was then calculated in accordance with the following equation: [formula]

[2] = test system: glutathione content of liver; test: Content of glutathione in liver of streptozotocin diabetic rats; assay type: in vivo, Sprague-Dawley rats; conditions: for Glutathione content as compared to the normal group / Glutathione content Relative value: 10 mg/kg; for Glutathione content (μ mole/g): 10 mg/kg oral everyday for 4 days, liver; for Glutathione content Relative value: normal group = 100
Description: In order to induce diabetes in rats, streptozotocin (Sigma Chemical Co., USA) dissolved in 0.01M citrate buffer solution (pH 4.5) was injected into the abdominal cavity of 8 week-old Sprague-Dawley rats in an amount of 45 mg/kg of rat body weight. […] The diabetic rats were divided into 3 groups, each of 12-15 rats, and pinitol or chiroinositol dissolved in 10 ml of water was orally administered to the rats of two groups (experimental groups 1 and 2) in an amount of 10 mg/kg of rat body weight everyday for 4 days. Rats of the normal group and control group (diabetic group) were each treated with 10 ml of distilled water. After fasting during 18 hours, the rats were anesthetized with ethyl ether, sacrificed, the liver was taken and washed with cold physiological saline. The glutathione content of the homogenized liver solution was measured according to the method of Ellman (Arch. Biochem. Biophy., 70-77 (1959)) and the result is shown in Table IV.

[3] = test system: serum GOT, GPT and γ-GTP levels; test: Protective activity for liver in adults with elevated serum GOT or γ-GTP (serum GOT, GPT, γ-GTP); assay type: in vivo, human; conditions: oral 600 mg daily for 2 months
Description: Pinitol was orally administered to adults (the average age: 51.8 years, man 7 and female 8) showing serum GOT or γ-GPT level higher than 50 IU/L at a daily dose of 600 mg for 2 months. Serum GOT, GPT and γ-GTP levels were determined before and after the administration.

SOD activity in liver = test: Determination of SOD activity in liver of carbon tetrachloride treated rats; assay type: in vivo, Sprague-Dawley rats; conditions: for SOD activity (U/g Liver): CCl4 i.p., liver 24 hours later; for SOD activity Relative Value (%): control group = 100
Description: The rats were divided into 7 groups and pinitol dissolved in 10 ml of water was orally administered to the rats of the experimental groups in an amount of 200-1000 mg/kg of rat body weight everyday for 4 days. The comparative group rats were treated with Silymarin (Sigma Chemical Co.) in an amount of 200 mg/kg, the normal and control groups were each treated with 10 ml of distilled water. On day 4, a mixture of carbon tetrachloride and soybean oil (1:1 (v/v)) was injected intraperitoneally into the rats except the rats of the normal group in an amount of 0.5 ml/kg, 90 minutes after the administration of pinitol. 24 hours thereafter, SOD activity of the liver taken out from each rat was measured according to the method of Neoot et al., (Methods Enzymol., 186: 209-219 (1993)) and tested by student t-test.

[4] = rats, oral, 5,000 mg/kg, day 14
Description: 6 week-old, specific pathogen-free Sprague-Dawley female rats (15 heads), each weighing about 130 to 147 g, and male rats (15 heads), each weighing about 110 to 123 g, were bred under the condition of 23±3° C., 55±15% relative humidity and 12 L/12 D photoperiod. Fodder (Harlan, U.S.A.) and water were sterilized and fed to the rats. The rats were acclimated for 1 week before the administration of pinitol.
Pinitol was dissolved in physiological saline and the solution was orally administered to each rat in an amount of 5,000 mg/kg of rat body weight. […] The weight changes of the rats were recorded at day 1, 3, 7 and 14 to examine the effect of pinitol. Further, on day 14, the rats were sacrificed and the internal organs were visually examined.

| Compound | GOT ([1]; 5 mg/kg oral) [IU/L] | GPT ([1]; 5 mg/kg oral) [IU/L] | GOT Inhibition (%) ([1]; 5 mg/kg oral) | GPT Inhibition (%) ([1]; 5 mg/kg oral) | GOT ([1]; 10 mg/kg oral) [IU/L] | GPT ([1]; 10 mg/kg oral) [IU/L] | GOT Inhibition (%) ([1]; 10 mg/kg oral) | GPT Inhibition (%) ([1]; 10 mg/kg oral) | GOT ([1]; 20 mg/kg oral) [IU/L] | GPT ([1]; 20 mg/kg oral) [IU/L] | GOT Inhibition (%) ([1]; 20 mg/kg oral) | GPT Inhibition (%) ([1]; 20 mg/kg oral) | Glutathione content as compared to the normal group [2] [%] | Glutathione content (μ mole/g) [2] [μ mole/g] | Glutathione content Relative value [2] | further results |
| --- | --- | --- | --- | --- | --- | --- | --- | --- | --- | --- | --- | --- | --- | --- | --- | --- |
| OC1C(O)C(O)C(O)C(O)C1O (centres unmarked) [chiroinositol] | 321 ± 35 | 156 ± 12 | 44.0 | 45.0 | 205 ± 28 | 80 ± 9 | 69.4 | 78.2 | 174 ± 26 | 88 ± 7 | 76.1 | 74.7 | 85 | 14.52 ± 0.57 | 85.0 |  |
| CO[C@H]1[C@H](O)[C@@H](O)[C@@H](O)[C@H](O)[C@@H]1O [Pinitol, pinitol] | 298 ± 28 | 134 ± 7 | 49.7 | 54.6 | 188 ± 22 | 92 ± 5 | 73.4 | 72.9 | 192 ± 17 | 75 ± 4 | 72.6 | 80.3 | 96 | 16.38 ± 2.43 | 95.8 | Serum GOT After administration [3]: 31.4 ± 3.0 IU/L; Serum GPT After administration [3]: 43.2 ± 8.1 IU/L; Serum γ-GTP After administration [3]: 82.6 ± 17.5 IU/L; Serum GOT Degree of decrease (%) ([3]; vs before administration): 45.3%; Serum GPT Degree of decrease (%) ([3]; vs before administration): 51.8%; Serum γ-GTP Degree of decrease (%) ([3]; vs before administration): 41.1%; SOD activity lower than that of the control group by (SOD activity in liver; 200 mg/kg): 7%; SOD activity (U/g Liver) (SOD activity in liver; 200 mg/kg oral everyday for 4 days): 217 ± 74 U/g Liver; SOD activity Relative Value (%) (SOD activity in liver; 200 mg/kg): 93%; SOD activity higher than that of the control group by (SOD activity in liver; 300 mg/kg): 24%; SOD activity (U/g Liver) (SOD activity in liver; 300 mg/kg oral everyday for 4 days): 289 ± 45 U/g Liver; SOD activity Relative Value (%) (SOD activity in liver; 300 mg/kg): 124%; Effect on SOD activity in the liver (SOD activity in liver; 300 mg/kg, p<0.05): raises SOD activity in the liver; SOD activity higher than that of the control group by (SOD activity in liver; 500 mg/kg): 44%; SOD activity (U/g Liver) (SOD activity in liver; 500 mg/kg oral everyday for 4 days): 335 ± 52 U/g Liver; SOD activity Relative Value (%) (SOD activity in liver; 500 mg/kg): 144%; SOD activity higher than that of the control group by (SOD activity in liver; 1000 mg/kg): 35%; SOD activity (U/g Liver) (SOD activity in liver; 1000 mg/kg oral everyday for 4 days): 315 ± 38 U/g Liver; SOD activity Relative Value (%) (SOD activity in liver; 1000 mg/kg): 135%; Autopsy, pathological abnormality of internal organs [4]: did not develop any pathological abnormality |
